Where a SMILES comes first, the peptide text is derived from it. Where no end group is shown, it is not given here. [ ]: non-standard residue; d: D form. Cit = NC(=O)NCCC[C@H](N)C(=O)O
Legend:
[1] = Solubility of peptide in aqueous medium; format: physicochemical
PBMC = experiment: Cytokine secretion in day 5 supernatants by Cytometric Bead Array (CBA) after peptide stimulation; format: cell-based, human; conditions: for number of RA patients with positive IL-6 response to this epitope only: of 17 RA patients, threshold mean + 2 SD above native peptide response; for cytokine responses to the epitope: current studies, fibrinogen: long-standing RA patients
[2] = test system: antigen-presenting cells (APC); experiment: Pre-incubation of APC with NF-kB, mTOR or Syk inhibitors; T cell cytokine production in response to citrullinated aggrecan peptide; format: cell-based, human; conditions: APC pre-incubated 1 h with inhibitor, then LPS; 5 days with CD4+ T cells and 3 or 30 μg/mL Aggrecan peptide 84-103 cit 93
Experimental: Peripheral blood mononuclear cells (PBMC) were extracted from an RA patient with disease duration 18 years, positive anti-CCP and HLA-DRB1*0401 shared epitope. Autologous CD4+ T cells were isolated using immunomagnetic beads. The non-T cell fraction consists of antigen-presenting cells (APC), including dendritic cells, monocytes and B cells; it was treated with Mitomycin C to prevent proliferation. The APC were pre-incubated for 1 h without or with 3 uM BAY7011-82, 20 μg/mL Curcumin (both inhibit NF-kB), 10 ng/mL Rapamycin (inhibits mTOR) or […] Piceatannol (inhibits syk), then incubated with 100 ng/mL LPS for 1 h. The APC were washed 3 times then incubated for 5 days with CD4+ T cells in the presence of 0 μg/mL, 3 μg/mL or 30 μg/mL Aggrecan peptide 84-103 cit 93. Cytokines were analysed in culture supernatants by cytokine bead array.

CD4+ T cells = experiment: Flow cytometry and intracellular cytokine staining after peptide stimulation; format: cell-based, human
Experimental: FIG. 6 is a graphical representation showing cytokine secretion by CD4^+ T cell subsets. PBMC from HLA-DR SE^+ RA patients and healthy controls were incubated with 0 or 30 μg/ml citrullinated fibrinogen or citrullinated aggrecan, stained with mAb directed against CD4, CD28, IFN-γ and IL-6 (A), or CD4, CD45RO, IL-6 and IFN-γ (E) then analyzed by flow cytometry. B: The gating strategy is outlined. C: Fluorescence minus one (FMO) plot showing background staining for intracellular cytokine staining, gated on CD4^+ T cells. D: IL-6 staining of gated CD4^− non-T cells. The proportions in (E) of IL-6^+CD4^+CD45RO^+ T cells were 2.2%, 5.3% and 7.1%, and of IL-6^+CD4^+CD45RO^− T cells were 0.8%, 2.1% and 4% in response to incubation with no peptide, citrullinated fibrinogen and citrullinated aggrecan respectively. Two individual RA patients and 1 healthy control are shown. Data are representative of 2 healthy donors and 5 RA patients.
IL-6 is an important cytokine in RA, which could be produced upon stimulation of PBMC either by T cells or antigen presenting cells. To determine the origin of the cytokines secreted into supernatants of PBMC stimulated by citrullinated peptides, RA PBMC were incubated with citrullinated or native peptides for 5 days, with addition of Brefeldin-A for the last 18 hours, prior to intracellular cytokine staining along with analysis of cell surface markers. CD3^+CD4^+ T cells produced more intra-cellular IFN-γ and IL-6 when incubated with citrullinated aggrecan or fibrinogen relative to incubation in medium alone (FIG. 6A, B). […] In healthy controls, CD28^− cells comprised only a small proportion of the CD4^+ T cells, and cytokine-secreting cells were exclusively CD4^+CD28^+. CD28^− cells were more abundant among CD4^+ PB T cells in some, but not all, RA patients. Where CD4^+CD28^− T cells were present, IL-6 and IFN-γ were secreted by both CD28^− and CD28^+CD4^+ T cells in response to citrullinated peptides. […] IFN-γ^+CD4^+ and IL-6^+CD4^+ T cells included both CD45RO^+ and CD45RO^− cells (FIG. 6E).
PBMC from SE^+ RA patients or healthy controls were incubated with or without peptides at concentrations of 3 and 30 μg/mL for 5 days, with Brefeldin A (Sigma Aldrich) added for the final 18 hours. Cells were stained for CD3-FITC, CD4-APC/Cy7, CD28-FITC, CXCR5-PerCP/Cy5.5 and CD45RO-PerCP/Cy5.5 (Biolegend), followed by permeabilization and staining for intracellular IL-6-APC and IFN-γ-APC (Biolegend). Data were collected on the Gallios flow cytometer and analysed using Kaluza software (Beckman Coulter).

PBMC or SFMC = format: cell-based, human
[3] = RA PBMC, 5 days, Brefeldin-A last 18 hours

CC(C)C[C@H](NC(=O)[C@H](CC(C)C)NC(=O)[C@@H](NC(=O)[C@@H](N)C(C)C)C(C)C)C(=O)N[C@H](C(=O)N[C@@H](C)C(=O)N[C@H](C(=O)N[C@@H](CCC(=O)O)C(=O)NCC(=O)N[C@@H](CCCNC(N)=O)C(=O)N[C@H](C(=O)N[C@@H](CCCNC(=N)N)C(=O)N[C@H](C(=O)N[C@@H](CC(N)=O)C(=O)N[C@@H](CO)C(=O)N[C@@H](C)C(=O)N[C@@H](Cc1ccc(O)cc1)C(=O)N[C@@H](CCC(N)=O)C(=O)N[C@@H](CC(=O)O)C(=O)N[C@@H](CCCCN)C(=O)O)C(C)C)C(C)C)[C@@H](C)O)C(C)C [citrullinated aggrecan, VVLLVATEGCitVRVNSAYQDK] (HELM PEPTIDE1{V.V.L.L.V.A.T.E.G.[Cit].V.R.V.N.S.A.Y.Q.D.K}$$$$V2.0; N-terminus and C-terminus assumed)
solubility in aqueous medium [1]: relatively insoluble in aqueous medium

QYM[Cit]ADQAAGGLR [citrullinated collagen type II]
number of RA patients with positive IL-6 response to this epitope only (PBMC): 0

Cc1ccc(S(=O)(=O)/C=C/C#N)cc1 [Bay11-7082, E3((4-methylphenyl)-sulfonyl)-2-propenenitrile]
capacity of APC presenting cit-peptide to induce T cell IL-6 production [2]: partially suppressed

SAVRA[Cit]SSVPGVR [citrullinated vimentin 66-78]
cytokine responses to the epitope (PBMC): much weaker cytokine responses

QDFIN[Cit]INKLKNS [citrullinated fibrinogen]
proportion of IL-6+CD4+CD45RO- T cells (CD4+ T cells; 30 μg/ml peptide, no peptide 0.8%): 2.1%
proportion of IL-6+CD4+CD45RO+ T cells (CD4+ T cells; 30 μg/ml peptide, no peptide 2.2%): 5.3%
intra-cellular IFN-γ in CD3+CD4+ T cells relative to medium alone (CD4+ T cells; [3]): more
intra-cellular IL-6 in CD3+CD4+ T cells relative to medium alone (CD4+ T cells; [3]): more
healthy controls whose PBMC dose-dependently secreted IL-6 (PBMC; 6 SE+ healthy controls): 3/6
cytokine responses to the epitope (PBMC): robust cytokine production
number of RA patients with positive IL-6 response to this epitope only (PBMC): 0

tetanus toxoid
Proliferative responses to tetanus toxoid, RA compared with healthy control PBMC (PBMC or SFMC): significantly lower
